Legend:
[1] = tested on: Mycobacterium tuberculosis Erdman (autoluminescent); assay: total FIC50 (Loewe) at 50% inhibition, three-drug combination (log2); higher = more antagonistic
Description: (§1)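 DiaMOND equipotent three-drug combination dose responses (10 doses, 1.5- or 2-fold spacing, centred on IC90) against autoluminescent M. tuberculosis Erdman in 8 in vitro models. Read-out is OD600, or luminescence for the intracellular and dormancy models, normalised to untreated wells. Hill-fit Einf, AUC25 and GRinf are potency metrics; FIC50 and FIC90 are total Loewe fractional inhibitory concentrations as log2 (negative = synergy).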

[2] = tested on: Mycobacterium tuberculosis Erdman (autoluminescent); assay: total FIC90 (Loewe) at 90% inhibition, three-drug combination (log2); higher = more antagonistic
Description: as §1

[3] = tested on: Mycobacterium tuberculosis Erdman (autoluminescent); assay: Einf, fitted maximum growth inhibition of three-drug combination (fraction); higher = stronger maximal inhibition
Description: as §1

[4] = tested on: Mycobacterium tuberculosis Erdman (autoluminescent); assay: AUC25, normalised area under dose response up to IC25 (three-drug combination) (fraction (0-1)); higher = more potent at low dose
Description: as §1

[5] = tested on: Mycobacterium tuberculosis Erdman (autoluminescent); assay: GRinf, maximum normalised growth rate inhibition (three-drug combination) (unitless (-1 to 1)); higher = less effect (negative = killing)
Description: as §1

CC[C@@H](CO)NCCN[C@@H](CC)CO [ethambutol] + NNC(=O)c1ccncc1 [isoniazid] + CO[C@H]1/C=C/O[C@@]2(C)Oc3c(C)c(O)c4c(O)c(c(/C=N/N5CCN(C)CC5)c(O)c4c3C2=O)NC(=O)/C(C)=C\C=C\[C@H](C)[C@H](O)[C@@H](C)[C@@H](O)[C@@H](C)[C@H](OC(C)=O)[C@@H]1C [rifampicin]
Conditions	AUC25, [4]	Einf, [3]	GRinf, [5]	total FIC50, [1]	total FIC90, [2]
in vitro model: acidic pH 5.7, time point: constant (~7 days, model-specific)	0.104	0.899	-0.0987	-0.427	–
in vitro model: acidic pH 5.7, time point: terminal (~4-5 doublings, model-specific)	0.0385	0.97	-0.0837	0.126	-0.549
in vitro model: intracellular J774, time point: constant = terminal	–	0.967	-0.321	–	-2.19

Conditions	AUC25, [4]	Einf, [3]	GRinf, [5]	total FIC50, [1]	total FIC90, [2]
in vitro model: butyrate, time point: constant (~7 days, model-specific)	0.0804	0.936	-0.0122	0.2	–
in vitro model: butyrate, time point: terminal (~4-5 doublings, model-specific)	0.0612	0.972	-0.0091	0.238	-0.403
in vitro model: cholesterol 0.05 mM, time point: constant (~7 days, model-specific)	0.0636	0.617	0.000894	-0.456	–
in vitro model: cholesterol 0.05 mM, time point: terminal (~4-5 doublings, model-specific)	0.0895	0.867	0.194	0.41	–
in vitro model: cholesterol-high 0.2 mM, time point: constant (~7 days, model-specific)	0.0326	0.915	-0.23	0.757	–
in vitro model: cholesterol-high 0.2 mM, time point: terminal (~4-5 doublings, model-specific)	0.0525	0.997	-0.778	0.99	0.871
in vitro model: dormancy (butyrate + nitrate, low O2), time point: constant (~7 days, model-specific)	0.0838	0.872	0.364	-0.262	–
in vitro model: dormancy (butyrate + nitrate, low O2), time point: terminal (~4-5 doublings, model-specific)	0.079	0.992	-0.165	0.173	-0.24
in vitro model: standard 7H9 glycerol, time point: constant = terminal	0.0526	0.9	0.116	0.199	–
in vitro model: valerate, time point: constant (~7 days, model-specific)	0.0369	0.853	0.000652	0.253	–
in vitro model: valerate, time point: terminal (~4-5 doublings, model-specific)	0.0264	0.932	0.0672	0.302	-0.619

CC[C@@H](CO)NCCN[C@@H](CC)CO [ethambutol] + NNC(=O)c1ccncc1 [isoniazid] + COc1c(N2C[C@@H]3CCCN[C@@H]3C2)c(F)cc2c(=O)c(C(=O)O)cn(C3CC3)c12 [moxifloxacin]
Conditions	AUC25, [4]	Einf, [3]	GRinf, [5]	total FIC50, [1]	total FIC90, [2]
in vitro model: acidic pH 5.7, time point: constant (~7 days, model-specific)	0.0955	0.722	-0.273	-0.309	–
in vitro model: acidic pH 5.7, time point: terminal (~4-5 doublings, model-specific)	0.0597	0.933	-0.253	0.821	0.326
in vitro model: intracellular J774, time point: constant = terminal	–	0.976	-0.437	–	-0.746

Conditions	AUC25, [4]	Einf, [3]	GRinf, [5]	total FIC50, [1]	total FIC90, [2]
in vitro model: butyrate, time point: constant (~7 days, model-specific)	0.0852	0.938	-0.0732	0.655	–
in vitro model: butyrate, time point: terminal (~4-5 doublings, model-specific)	0.0658	0.974	-0.0933	0.598	0.445
in vitro model: cholesterol 0.05 mM, time point: constant (~7 days, model-specific)	0.119	0.798	-0.268	0.425	–
in vitro model: cholesterol 0.05 mM, time point: terminal (~4-5 doublings, model-specific)	0.0714	0.92	0.0114	1.23	0.826
in vitro model: cholesterol-high 0.2 mM, time point: constant (~7 days, model-specific)	0.0564	0.94	-0.315	0.863	–
in vitro model: cholesterol-high 0.2 mM, time point: terminal (~4-5 doublings, model-specific)	0.0472	1	-0.686	1.21	0.977
in vitro model: dormancy (butyrate + nitrate, low O2), time point: constant (~7 days, model-specific)	0.119	0.851	0.356	0.357	–
in vitro model: dormancy (butyrate + nitrate, low O2), time point: terminal (~4-5 doublings, model-specific)	0.125	0.986	-0.134	-0.452	0.658
in vitro model: standard 7H9 glycerol, time point: constant = terminal	0.0677	0.975	-0.186	0.205	0.328
in vitro model: valerate, time point: constant (~7 days, model-specific)	0.0908	0.876	-0.0258	0.301	–
in vitro model: valerate, time point: terminal (~4-5 doublings, model-specific)	0.0784	0.953	0.0174	0.421	0.19

CC[C@@H](CO)NCCN[C@@H](CC)CO [ethambutol] + NNC(=O)c1ccncc1 [isoniazid] + NC(=O)c1cnccn1 [pyrazinamide]
Conditions	AUC25, [4]	Einf, [3]	GRinf, [5]	total FIC50, [1]	total FIC90, [2]
in vitro model: acidic pH 5.7, time point: constant (~7 days, model-specific)	0.0856	0.755	-0.322	0.219	–
in vitro model: acidic pH 5.7, time point: terminal (~4-5 doublings, model-specific)	0.076	0.953	-0.269	0.788	-0.0381
in vitro model: intracellular J774, time point: constant = terminal	–	0.988	-0.458	–	0.0195

Conditions	AUC25, [4]	Einf, [3]	GRinf, [5]	total FIC50, [1]	total FIC90, [2]
in vitro model: butyrate, time point: constant (~7 days, model-specific)	0.0862	0.936	-0.0472	0.362	–
in vitro model: butyrate, time point: terminal (~4-5 doublings, model-specific)	0.0571	0.956	0.000899	0.43	0.0924
in vitro model: cholesterol 0.05 mM, time point: constant (~7 days, model-specific)	0.115	0.804	-0.282	–	–
in vitro model: cholesterol 0.05 mM, time point: terminal (~4-5 doublings, model-specific)	0.119	0.953	-0.377	0.635	–
in vitro model: cholesterol-high 0.2 mM, time point: constant (~7 days, model-specific)	0.0628	0.921	-0.27	0.837	–
in vitro model: cholesterol-high 0.2 mM, time point: terminal (~4-5 doublings, model-specific)	0.0569	1	-0.8	0.879	0.821
in vitro model: dormancy (butyrate + nitrate, low O2), time point: constant (~7 days, model-specific)	0.0979	0.822	0.394	-0.294	–
in vitro model: dormancy (butyrate + nitrate, low O2), time point: terminal (~4-5 doublings, model-specific)	0.104	0.972	-0.0582	0.22	1.09
in vitro model: standard 7H9 glycerol, time point: constant = terminal	0.063	0.862	0.233	0.587	–
in vitro model: valerate, time point: constant (~7 days, model-specific)	0.069	0.819	0.124	0.411	–
in vitro model: valerate, time point: terminal (~4-5 doublings, model-specific)	0.0469	0.898	0.113	0.582	0.569

Source: the supplement of paper PMC8617591
